Holding throughout (assay): NCI-60 cell line screen, 48 h
Assay [1] deals with A498 renal.
Assay [2] concerns HCT-116 colon.
The test system of assay [3] is MDA-N.
The test system of assay [4] is BT-549 breast.
Assay [5] deals with SNB-75 CNS.
The test system of assay [6] is MDA-MB-231 breast.
For assay [7], the system named is COLO 205 colon.

The values below come from PubChem BioAssay (NCI).

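Protocol summary: plate cells (96-well), add compound at 5 concentrations, incubate 48 h, interpolate endpoints linearly. At the TGI there is no net growth.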 A value given as a limit tells only on which side of the number the result lay.

In the case of `CCCCC1C(=O)N(c2ccc(S(=O)(=O)Nc3ccccn3)cc2)N(c2ccc(O)c(C(=O)O)c2)C1=O` (stereo not given), the TGI in assay [1], in assay [2], in assay [3], in assay [4], in assay [5] and in assay [6] was above 100 µM each time. The same compound returned a TGI in assay [7] above 100 µM.
On to `CCOC(=O)c1c(C)noc1/N=N/N(CCO)CCO`, for which the TGI in assay [1] was 75.3 µM; in assay [2], above 100 µM; in assay [3], above 100 µM; in assay [4], above 100 µM; in assay [5], 46.1 µM; in assay [6] it was above 100 µM. This compound also displayed a TGI in assay [7] of 70.1 µM.
Turning to `C[N+]1(C)CCOC(O)(c2ccccc2)C1` (stereo not given), the TGI in assay [1], in assay [2], in assay [3], in assay [4], in assay [5] and in assay [6] was above 100 µM in each case. For the same compound, the TGI in assay [7] was above 100 µM.
As for `O=c1oc2ccccc2cc1-c1csc(Nc2cc(Cl)cc(Cl)c2)n1`, the TGI in assay [1] was 65.6 µM; in assay [2], above 38.3 µM; in assay [3] it was above 100 µM; in assay [4], above 100 µM; in assay [5] it was 11.8 µM; in assay [6], 63.8 µM. The TGI in assay [7] is above 100 µM.
Regarding `CC1=CSC(O)(c2ccc(Cl)cc2)c2noc(=O)n21` (stereo not given), the TGI in assay [1], in assay [2], in assay [3], in assay [4], in assay [5] and in assay [6] was above 100 µM throughout. In assay [7], this compound gave a TGI above 100 µM.
On to `CC(C)(Cl)C(Br)CCC(CBr)=C(Cl)CCl` (mixture of isomers), for which the TGI in assay [1] is above 5.56 µM; in assay [2] it was 3.63 µM; in assay [3] it was 3.74 µM; in assay [4], 4.14 µM; in assay [5], 7.93 µM; in assay [6] it was 3.5 µM. The TGI in assay [7] came out at 1.11 µM.
Consider `Cc1nc2c(=O)n(C)c(=O)nc-2n(CCO)c1C`, for which the TGI in assay [1], in assay [2], in assay [3], in assay [4], in assay [5] and in assay [6] was above 100 µM each time. The compound also returned a TGI in assay [7] above 100 µM.
As to `COc1ccc(C2C3=C(COC3=O)OC(C)(C)Oc3cc4c(cc32)OCO4)cc1` (stereo not given), the TGI in assay [1] is 85.2 µM; in assay [2], above 85.4 µM; in assay [3], 8.97 µM; in assay [4] it was 89.3 µM; in assay [5] it was 23 µM; in assay [6], 97.9 µM. Further, the TGI in assay [7] was found to be 48.5 µM.
With `C[n+]1c2ccccc2c(C(=O)NC(CCCN=C(N)N)C(=O)O)c2ccccc21` (stereo not given), the TGI in assay [1], in assay [2], in assay [3], in assay [4], in assay [5] and in assay [6] was above 100 µM in each case. In assay [7], this compound registered a TGI above 100 µM.
For `OC1CSCCCSCCSCCCSC1`, the TGI in assay [1], in assay [2], in assay [3], in assay [4], in assay [5] and in assay [6] was above 100 µM in each case. This compound returned a TGI in assay [7] above 100 µM.
As to `O=C1CCc2nc3ncccc3cc2C1`, the TGI in assay [1], in assay [2], in assay [3], in assay [4], in assay [5] and in assay [6] was above 100 µM in each case. This compound also showed a TGI in assay [7] above 100 µM.
Regarding `COc1cc(OC)cc(-n2c(N)c(-c3nc4ccccc4s3)c3ccc([N+](=O)[O-])cc3c2=O)c1`, the TGI was 76.7 µM in assay [1]; above 100 µM in assay [2]; above 100 µM in assay [3]; above 100 µM in assay [4]; above 100 µM in assay [5]; above 100 µM in assay [6]. Moreover, in assay [7], the TGI is above 100 µM.
On to `C=C1C(=O)CCC1C(=O)O` (stereo not given), for which the TGI in assay [1], in assay [2], in assay [3], in assay [4], in assay [5] and in assay [6] was above 100 µM throughout. In assay [7], this compound displayed a TGI above 100 µM.
On to `c1ccc(CN2CCCN3CCN(CCCN(Cc4ccccc4)CC3)CC2)cc1`, for which the TGI in assay [1], in assay [2], in assay [3], in assay [4], in assay [5] and in assay [6] was above 100 µM in each case. In assay [7], this compound registered a TGI of 57.8 µM.
`CCN=C=NCCCN(C)C`: the TGI in assay [1], in assay [2], in assay [3], in assay [4], in assay [5] and in assay [6] was above 100 µM each time. In addition, the TGI in assay [7] was above 100 µM.
